Experimental findings from ChEMBL document CHEMBL3046660, “Synthesis, cytotoxic, and DNA binding studies of novel fluorinated condensed pyrano pyrazoles” (Med Chem Res, 2013) are described below.

The source made the active and inactive calls. The calls are words filed in the database; no cut-off is given here.

For one assay, the system named is HeLa. As to the kind of experiment: Cytotoxicity against Homo sapiens (human) HeLa cells assessed as inhibition of cell viability by MTT assay. The format is functional, cell-based.
The next assay has as its system A549. As to the kind of experiment: Cytotoxicity against Homo sapiens (human) A549 cells assessed as inhibition of cell viability by MTT assay. The format is functional, cell-based.
The subject of a further assay is MRC5. As to the kind of experiment: Cytotoxicity against Homo sapiens (human) MRC5 cells assessed as inhibition of cell viability by MTT assay. The class given is cell-based. On the technique in general: Tetrazolium assays rely on reduction of a dye to a coloured formazan, in cell work by metabolically active cells.
Assay [1] can be described thus: Binding affinity to DNA assessed as peak current at 1 mM measured at potential of 1.3 V at 30 min after drug addition by cyclic voltammetry in presence of 1 mM cytosine.
Assay [2] is described as follows: Binding affinity to DNA assessed as peak current at 1 mM at potential of 0.45 V by cyclic voltammetry.
Assay [3] in a line: Binding affinity to DNA assessed as peak current at 1 mM measured at potential of 0.45 V immediately after drug addition by cyclic voltammetry in presence of 1 mM cytosine.
Assay [4] can be described thus: Binding affinity to DNA assessed as peak current at 1 mM measured at potential of 0.45 V at 3 hr after drug addition by cyclic voltammetry in presence of 3 mM cytosine.
A short description of assay [5]: Binding affinity to DNA assessed as peak current at 1 mM measured at potential of 1.3 V at 3 hr after drug addition by cyclic voltammetry in presence of 3 mM cytosine.
A short description of assay [6]: Binding affinity to DNA assessed as peak current at 1 mM measured at potential of 1.3 V immediately after drug addition by cyclic voltammetry in presence of 1 mM cytosine.
A short description of assay [7]: Binding affinity to DNA assessed as peak current at 1 mM at potential of 1.3 V by cyclic voltammetry.

Take `N#CC1=C(N)Oc2c(c(C(F)(F)F)nn2-c2cccc(Cl)c2)C1c1ccco1` (stereo not given): the concentration for half-maximal inhibition (IC50) in the assay with HeLa, with A549 and in the assay with MRC5 was > 100 µM in each case.

For `N#CC1=C(N)Oc2c(c(C(F)(F)F)nn2-c2ccccc2)C1c1cccs1` (stereo not given), the IC50 with HeLa was 74.1 µM; in the assay with A549, 75.5 µM; with MRC5, > 100 µM.

With `COc1ccc(C2C(C#N)=C(N)Oc3c2c(C(F)(F)F)nn3-c2cccc(Cl)c2)cc1` (stereo not given), the IC50 with HeLa was > 100 µM; in the assay on A549, 89.4 µM; with MRC5, > 100 µM.

For `N#CC1=C(N)Oc2c(c(C(F)(F)F)nn2-c2ccccc2)C1c1ccc([N+](=O)[O-])cc1` (stereo not given), the half-maximal inhibitory concentration (IC50) with HeLa, with A549 and with MRC5 was > 100 µM throughout.

For the compound `N#CC1=C(N)Oc2c(c(C(F)(F)F)nn2-c2cccc(Cl)c2)C1c1ccc([N+](=O)[O-])cc1` (stereo not given), the 50% inhibitory concentration (IC50) in the assay with HeLa, with A549 and in the assay on MRC5 was > 100 µM in each case.

`N#CC1=C(N)Oc2c(c(C(F)(F)F)nn2-c2ccc(F)cc2)C1c1cccs1` (stereo not given): the half-maximal inhibitory concentration (IC50) in the assay on HeLa, in the assay on A549 and with MRC5 was > 100 µM each time.

For `COc1cccc(C2C(C#N)=C(N)Oc3c2c(C(F)(F)F)nn3-c2ccccc2)c1` (stereo not given), the IC50 with HeLa, with A549 and in the assay with MRC5 was > 100 µM throughout.

For `Cc1ccc(C2C(C#N)=C(N)Oc3c2c(C(F)(F)F)nn3-c2ccc(F)cc2)cc1` (stereo not given), the IC50 with HeLa, in the assay on A549 and in the assay with MRC5 was > 100 µM throughout.

For `N#CC1=C(N)Oc2c(c(C(F)(F)F)nn2-c2ccccc2)C1c1ccco1` (stereo not given), the IC50 in the assay on HeLa, in the assay with A549 and in the assay with MRC5 was > 100 µM each time.

Take `N#CC1=C(N)Oc2c(c(C(F)(F)F)nn2-c2ccc(F)cc2)C1c1ccc([N+](=O)[O-])cc1` (stereo not given): the half-inhibitory concentration (IC50) with HeLa, in the assay on A549 and with MRC5 was > 100 µM throughout.

Consider `COc1ccc(C2C(C#N)=C(N)Oc3c2c(C(F)(F)F)nn3-c2ccc(F)cc2)cc1` (stereo not given), for which the result in assay [1], in assay [2], in [3], in assay [4] and in assay [7] was Active. The IC50 with HeLa is > 100 µM; with A549, 10.3 µM; with MRC5 it was > 100 µM. Also, the result in assay [5] and in assay [6] was inactive.

Broadly, the IC50 is the point on the concentration scale where inhibition reaches its midpoint.
